In publication PMC7400207, “It Takes Two: Dimerization Is Essential for the Broad-Spectrum Predatory and Defensive Activities of the Venom Peptide Mp1a from the Jack Jumper Ant Myrmecia pilosula” (Biomedicines, 2020):
Read-outs that look alike come from different tables or passages of the source. Marks after values point to notes of the source that are not given here.

Experiments:
Haemonchus contortus = assay: microbe, parasite or virus in culture; assay type: cell-based; conditions: for IC50: read-out: Anthelmintic Activity (IC50), inhibition of larval development; for Fold less active than levamisole (IC50 higher): larval development, drug-susceptible isolate
Procedure: Sheep were infected with H. contortus Kirby isolate (field isolate from the University of New England Kirby Research Farm in 1986; susceptible to all commercial anthelmintics) and housed at the Commonwealth Scientific and Industrial Research Organisation (CSIRO) FD McMaster Laboratory, Armidale, NSW. All animal procedures were approved by the FD McMaster Animal Ethics Committee, CSIRO (Approval Number AEC 17/12, approval date 15.6.2017). Eggs were prepared from overnight fecal collection as described. In brief, feces were filtered through mesh filters, settled, and supernatant removed by vacuum. Eggs were recovered by density centrifugation using 10 and 25% (w/v) sucrose solutions, centrifuged at 650× g for 7 min. Eggs were recovered from the interface of the two sucrose layers, rinsed with distilled water, sterilized with bleach, rinsed again, and diluted to 4500 eggs/mL. Tylosin tartrate (800 μg/mL) and amphotericin B (25.0 μg/mL) were added, and eggs were used immediately for larval development assays.
Assays were conducted using 96-well microtitre plates, with each well containing 50 μL of 2% agar, 20 μL of egg solution and 20 μL of peptide solution in water. The commercial anthelmintic levamisole (Sigma Aldrich) was used as a positive control (final 1% v/v). Negative controls contained equivalent volumes of water or DMSO (final 1% v/v). Plates were incubated at 26 °C for six days. After 24 h, each well was fed with 10 μL of a nutrient solution containing Escherichia coli XL1-Blue1 (grown overnight at 37 °C) and growth medium. The growth medium consisted of yeast extract (1% w/v), Earle’s salt solution (10% v/v), saline solution (0.9% NaCl, w/v), and sodium bicarbonate (1 mM) in Luria-Bertani medium (LB). Larvae were killed and stained with Lugol’s iodine solution after six days. Larvae that had developed to the infective L3 stage were counted, and the numbers in treated assay wells were expressed as a percentage of the number of infective L3 stage larvae in multiple control wells. Concentrations that caused 50% inhibition (IC50 values) were calculated from three experiments of duplicate assays.

Drosophila melanogaster = Drosophila melanogaster microinjection assay; assay type: in vivo; conditions: intrathoracic injection, 50 nL, adult female flies, lethality at 24 h; three dose-response curves, ± SEM
Procedure: The insecticidal activity of the chemically synthesized 1a and analogues thereof were determined by injection into adult female D. melanogaster aged 3–5 days (mass 0.7–0.9 mg) as described previously. Analogues were dissolved in water and intrathoracically injected using pulled glass capillaries at a volume of 50 nL per fruit fly, and the results were compared against an equivalent injection volume of water alone. All injections were performed in the morning or early afternoon. At 24 h post-injection flies were monitored for lethality. Dose–response curves were constructed using 7–10 doses per analogue (each dose tested in eight flies) and three separate dose–response curves were constructed for each analogue. The lethality in the groups receiving the analogues were adjusted using the respective control group lethality using the Henderson-Tilton formula [20]. The median lethal dose (LD50) of each analogue was calculated based on the three dose–response curves using GraphPad Prism 8.0 [21]. One-way ANOVA followed by Dunnett’s multiple comparison test were used to compare LD50 values.

HEK293 cells = conditions: HEK293, 24 h, resazurin; cited from earlier work
Procedure: (§1) Table 2 Summary of bioassay data for synthetic Mp1a and analogues, including effective concentration (EC50) for activation of F11 cells, concentrations that caused 50% inhibition (IC50) for inhibition of larval development of H. contortus; median lethal dose (LD50) for lethal insecticidal effects on D. melanogaster; concentrations required to induce 50% cell death (CC50) for effects on viability o | column: Cytotoxicity (CC50 µM) ^b

F11 cells = assay: FLIPR calcium assay, activation of F11 cells; assay type: cell-based; conditions: for Concentration at which cytolysis (rapid increase in fluorescence followed by decrease to or below baseline) was observed / EC50: F11 cells, FLIPR; for EC50: Calcium 4 dye, max-min fluorescence in 300 s after peptide addition, PSS with 0.1% BSA, mean ± SEM, triplicate, read-out: Neuronal Cell Activation (EC50)
Procedure: F11 cells were cultured as previously described. Cells were maintained on Ham’s F12 media supplemented with 10% fetal bovine serum (FBS), 100 µM hypoxanthine, 0.4 µM aminopterin, and 16 µM thymidine (Hybri-MaxTM, Sigma Aldrich, North Ryde, Australia). Then, 384-well imaging plates (Corning) were seeded 48 h prior to imaging resulting in 90–95% confluence at imaging. Cells were incubated for 30 min with the Calcium 4 assay component A according to the manufacturer’s instructions (Molecular Devices, Sunnyvale, CA, USA) in physiological salt solution (PSS; composition in mM: 140 NaCl, 11.5 D-glucose, 5.9 KCl, 1.4 MgCl2, 1.2 NaH2PO4, 5 NaHCO3, 1.8 CaCl2, 10 HEPES) at 37°C. Fluorescence was measured using a fluorescent imaging plate reader (FLIPR^TETRA) equipped with a CCD camera (Excitation: 470–490 nm, Emission: […]) (Molecular Devices, Sunnyvale, CA, USA). Signals were read every second for 10 s before, and 300 s after the addition of peptides in PSS supplemented with 0.1% bovine serum albumin. All data are the mean ± SEM of assays performed in triplicate. Maximum–minimum fluorescence in the 300 s period after peptide addition was recorded as the response. Concentration–response data were fitted with a four-parameter Hill equation (variable slope) using GraphPad Prism 8 to obtain effective concentration (EC50) values.

human red blood cells = conditions: cited from earlier work
Procedure: as §1, with “Hemolysis (HC50” for “Cytotoxicity (CC50”

[1] = H. contortus Kirby isolate, egg to infective L3, 6 days, 26 °C, three experiments of duplicate assays, ± SEM, for 1a the component at higher concentrations (about 90% of population)

| SMILES | IC50 (Haemonchus contortus; [1]) | Fold less active than levamisole (IC50 higher) (Haemonchus contortus) | Insecticidal Activity (LD50) (Drosophila melanogaster) | Cytotoxicity (CC50) (HEK293 cells) | Concentration at which cytolysis (rapid increase in fluorescence followed by decrease to or below baseline) was observed (F11 cells) | EC50 (F11 cells) | Hemolysis (HC50) (human red blood cells) | Fold less active than native Mp1a (1a), F11 cell activation (F11 cells; ratio of EC50 values) | IC50 (Haemonchus contortus; Haemonchus contortus, 144 h) |
| --- | --- | --- | --- | --- | --- | --- | --- | --- | --- |
| CC[C@H](C)[C@H](N)C(=O)N[C@@H](CC(=O)O)C(=O)N[C@@H](Cc1c[nH]c2ccccc12)C(=O)N[C@@H](CCCCN)C(=O)N[C@@H](CCCCN)C(=O)N[C@H](C(=O)N[C@@H](CC(=O)O)C(=O)N[C@@H](Cc1c[nH]c2ccccc12)C(=O)N[C@@H](CCCCN)C(=O)N[C@@H](CCCCN)C(=O)N[C@H](C(=O)N[C@@H](CO)C(=O)N[C@@H](CCCCN)C(=O)N[C@@H](CCCCN)C(=O)N[C@H](C(=O)N[C@H]1CSSC[C@@H](C(=O)N[C@@H](CCCCN)C(=O)N[C@@H](CCCCN)C(=O)N[C@H](C(=O)N[C@@H](CC(C)C)C(=O)N[C@@H](CCCCN)C(=O)N[C@@H](CCC(N)=O)C(N)=O)C(C)C)NC(=O)[C@H](C(C)C)NC(=O)[C@H]([C@@H](C)O)NC(=O)[C@H](CCCCN)NC(=O)[C@H](C)NC(=O)[C@H](CC(C)C)NC(=O)[C@H](C(C)C)NC(=O)[C@@H](NC(=O)[C@@H](NC(=O)CNC(=O)[C@H](CCCCN)NC(=O)[C@H](CO)NC(=O)[C@@H](NC(=O)[C@H](CC(C)C)NC(=O)CNC(=O)[C@@H](NC(=O)[C@@H](N)CC(C)C)[C@@H](C)CC)C(C)C)[C@@H](C)O)CSSC[C@@H](C(=O)N[C@@H](CCCCN)C(=O)N[C@@H](Cc2ccccc2)C(=O)N[C@@H](CC(C)C)C(N)=O)NC(=O)[C@H](C)NC(=O)[C@H](CCCCN)NC(=O)[C@H](CC(C)C)NC(=O)[C@H](CCSC)NC(=O)[C@H](C(C)C)NC(=O)[C@H](CCCCN)NC1=O)[C@@H](C)O)C(C)C)C(C)C [Analogue 1c] | 7.2 ± 0.1 µM | approximately 10 fold | 552.7 ± 18.2 ^a pmol/g | 0.7 µM | ≥ 1 µM | 1390 ± 340 nM | > 12 µM |  |  |
| CC[C@H](C)[C@H](N)C(=O)N[C@@H](CC(=O)O)C(=O)N[C@@H](Cc1c[nH]c2ccccc12)C(=O)N[C@@H](CCCCN)C(=O)N[C@@H](CCCCN)C(=O)N[C@H](C(=O)N[C@@H](CC(=O)O)C(=O)N[C@@H](Cc1c[nH]c2ccccc12)C(=O)N[C@@H](CCCCN)C(=O)N[C@@H](CCCCN)C(=O)N[C@H](C(=O)N[C@@H](CO)C(=O)N[C@@H](CCCCN)C(=O)N[C@@H](CCCCN)C(=O)N[C@H](C(=O)N[C@H]1CSSC[C@@H](C(=O)N[C@@H](CCCCN)C(=O)N[C@@H](CCCCN)C(=O)N[C@H](C(=O)N[C@@H](CC(C)C)C(=O)N[C@@H](CCCCN)C(=O)N[C@@H](CCC(N)=O)C(N)=O)C(C)C)NC(=O)[C@H](C(C)C)NC(=O)[C@H]([C@@H](C)O)NC(=O)[C@H](CCCCN)NC(=O)[C@H](C(C)C)NC(=O)[C@H](CC(C)C)NC(=O)[C@H](C(C)C)NC(=O)[C@@H](NC(=O)[C@@H](NC(=O)CNC(=O)[C@H](CCCCN)NC(=O)[C@H](CO)NC(=O)[C@@H](NC(=O)[C@H](CC(C)C)NC(=O)CNC(=O)[C@@H](NC(=O)[C@@H](N)CC(C)C)[C@@H](C)CC)C(C)C)[C@@H](C)O)CSSC[C@@H](C(=O)N[C@@H](CCCCN)C(=O)N[C@@H](Cc2ccccc2)C(=O)N[C@@H](CC(C)C)C(N)=O)NC(=O)[C@H](C)NC(=O)[C@H](CCCCN)NC(=O)[C@H](C)NC(=O)[C@H](CCSC)NC(=O)[C@H](C(C)C)NC(=O)[C@H](CCCCN)NC1=O)[C@@H](C)O)C(C)C)C(C)C [Analogue 1d] | 9.5 ± 0.3 µM | approximately 10 fold | 578 ± 9.7 ^a pmol/g | 0.7 µM | ≥ 1 µM | 3380 ± 2800 nM | > 12 µM |  |  |
| CC[C@H](C)[C@H](N)C(=O)N[C@@H](CC(=O)O)C(=O)N[C@@H](Cc1c[nH]c2ccccc12)C(=O)N[C@@H](CCCCN)C(=O)N[C@@H](CCCCN)C(=O)N[C@H](C(=O)N[C@@H](CC(=O)O)C(=O)N[C@@H](Cc1c[nH]c2ccccc12)C(=O)N[C@@H](CCCCN)C(=O)N[C@@H](CCCCN)C(=O)N[C@H](C(=O)N[C@@H](CO)C(=O)N[C@@H](CCCCN)C(=O)N[C@@H](CCCCN)C(=O)N[C@H](C(=O)N[C@H]1CSSC[C@H](NC(=O)[C@@H](NC(=O)CNC(=O)[C@H](CCCCN)NC(=O)[C@H](CO)NC(=O)[C@@H](NC(=O)[C@H](CC(C)C)NC(=O)CNC(=O)[C@@H](NC(=O)[C@@H](N)CC(C)C)[C@@H](C)CC)C(C)C)[C@@H](C)O)C(=O)N[C@@H](C(C)C)C(=O)N[C@@H](CC(C)C)C(=O)N[C@@H](C(C)C)C(=O)N[C@@H](CCCCN)C(=O)N[C@@H]([C@@H](C)O)C(=O)N[C@@H](C(C)C)C(=O)N[C@H](C(=O)N[C@@H](CCCCN)C(=O)N[C@@H](CCCCN)C(=O)N[C@H](C(=O)N[C@@H](CC(C)C)C(=O)N[C@@H](CCCCN)C(=O)N[C@@H](CCC(N)=O)C(N)=O)C(C)C)CSSC[C@@H](C(=O)N[C@@H](CCCCN)C(=O)N[C@@H](Cc2ccccc2)C(=O)N[C@@H](CC(C)C)C(N)=O)NC(=O)[C@H](C)NC(=O)[C@H](CCCCN)NC(=O)[C@H](CC(C)C)NC(=O)[C@H](CCSC)NC(=O)[C@H](C(C)C)NC(=O)[C@H](CCCCN)NC1=O)[C@@H](C)O)C(C)C)C(C)C [Analogue 2a] | 35.8 ± 1.9 µM |  | > 600 pmol/g | > 10 µM | ≥ 1 µM | 900 ± 80 nM | > 10 µM | equipotent |  |
| c1ccc([C@H]2CN3CCSC3=N2)cc1 [levamisole, reference compound] |  |  |  |  |  |  |  |  | 0.68 µM |
